Our source for the IC50 values is patent US20170001990A1 (Genentech, Inc., priority 2014, published 2017).

For this test, the target named is Human recombinant carboxy-terminal his-tagged LDHA (amino acids 2-332) (Homo sapiens, UniProt P00338). Nature of the test: LDHA enzyme inhibition assay (NADH fluorescence). Particulars: LDHA IC50 (μM), 1 nM LDHA, NADH and pyruvate, stereochemistry of tested sample given.
As a reminder, the IC50 is the point on the concentration scale where inhibition reaches its midpoint. For the compound `O=C1CC(c2ccsc2)(c2cccc(OCC3CCC(CO)CC3)n2)NC(=O)C1Sc1ccccc1Cl` (single isomer, unassigned) [Example 233, 3-((2-chlorophenyl)thio)-6-(6-((4-(hydroxymethyl)cyclohexyl)methoxy)pyridin-2-yl)-6-(thiophen-3-yl)piperidine-2,4-dione], the IC50 is 0.017 µM.
Consider `O=C1CC(c2ccsc2)(c2cccc(Oc3cc(F)cc(CO)c3)n2)NC(=O)C1Sc1ccccc1Cl` (single isomer, unassigned) [Example 234, 3-(2-chlorophenyl)sulfanyl-6-[6-[3-fluoro-5-(hydroxy-methyl)phenoxy]-2-pyridyl]-6-(3-thienyl)piperidine-2,4-dione], for which the IC50 amounted to 0.004 µM.
In the case of `O=C1CC(c2ccsc2)(c2cccc(OCC3CCCO3)n2)NC(=O)C1Sc1ccccc1Cl` (single isomer, unassigned) [Example 235, 3-(2-chlorophenyl)sulfanyl-6-[6-(tetrahydrofuran-2-ylmethoxy)-2-pyridyl]-6-(3-thienyl)piperidine-2,4-dione], the IC50 stood at 0.021 µM.
Then `O=C1CC(c2ccsc2)(c2cccc(OCC3COC3)n2)NC(=O)C1Sc1ccccc1Cl` (single isomer, unassigned) [Example 236, 3-(2-chlorophenyl)sulfanyl-6-[6-(oxetan-3-ylmethoxy)-2-pyridyl]-6-(3-thienyl) piperidine-2,4-dione], with 0.025 µM.
In the case of `COCCCOc1cccc(C2(c3ccsc3)CC(=O)C(Sc3ccccc3Cl)C(=O)N2)n1` (single isomer, unassigned) [Example 237, 3-(2-chlorophenyl)sulfanyl-6-[6-(3-methoxypropoxy)-2-pyridyl]-6-(3-thienyl) piperidine-2,4-dione], the IC50 was 0.094 µM.
On to `O=C1CC(c2ccsc2)(c2cccc(OCC3CCCO3)n2)NC(=O)C1Sc1ccccc1Cl` (single isomer, unassigned) [Example 238, 3-(2-chlorophenyl)sulfanyl-6-[6-(tetrahydrofuran-2-ylmethoxy)-2-pyridyl]-6-(3-thienyl)piperidine-2,4-dione], for which the IC50 stood at 0.018 µM.
The figure for `O=C1CC(c2ccsc2)(c2cccc(OCC3CCCO3)n2)NC(=O)C1Sc1ccccc1Cl` (single isomer, unassigned) [Example 239, 3-(2-chlorophenyl)sulfanyl-6-[6-(tetrahydrofuran-2-ylmethoxy)-2-pyridyl]-6-(3-thienyl)piperidine-2,4-dione] is 0.015 µM; for `CC(CC1CC1)Oc1cccc(C2(c3ccsc3)CC(=O)C(Sc3ccccc3Cl)C(=O)N2)n1` (single isomer, unassigned) [Example 241, 3-(2-chlorophenyl)sulfanyl-6-[6-(2-cyclopropyl-1-methyl-ethoxy)-2-pyridyl]-6-(3-thienyl)piperidine-2,4-dione] it is 0.003 µM; for `O=C1CC(c2ccsc2)(c2cccc(OCC3CCCC3)n2)NC(=O)C1Sc1ccccc1Cl` (single isomer, unassigned) [Example 243, 3-(2-chlorophenyl)sulfanyl-6-[6-(cyclopentylmethoxy)-2-pyridyl]-6-(3-thienyl) piperidine-2,4-dione] it is 0.001 µM.
Then `O=C1CC(c2ccsc2)(c2cccc(OCC3CCC(CO)CC3)n2)NC(=O)C1Sc1ccccc1Cl` (single isomer, unassigned) [Example 244, 3-(2-chlorophenyl)sulfanyl-6-[6-[[4-(hydroxymethyl)cyclohexyl]methoxy]-2-pyridyl]-6-(3-thienyl) piperidine-2,4-dione], with 0.023 µM.
Then `O=C1CC(c2ccsc2)(c2cccc(OCC(F)F)n2)NC(=O)C1Sc1ccccc1Cl` (single isomer, unassigned) [Example 245, 3-(2-chlorophenyl)sulfanyl-6-[6-(2,2-difluoroethoxy)-2-pyridyl]-6-(3-thienyl) piperidine-2,4-dione], with 0.018 µM.
Regarding `CC(CC1CC1)Oc1cccc(C2(c3ccsc3)CC(=O)C(Sc3ccccc3Cl)C(=O)N2)n1` (single isomer, unassigned) [Example 251, 3-(2-chlorophenyl)sulfanyl-6-[6-(2-cyclopropyl-1-methyl-ethoxy)-2-pyridyl]-6-(3-thienyl) piperidine-2,4-dione], the half-maximal inhibitory concentration (IC50) was 0.019 µM.
The figure for `O=C1CC(c2ccsc2)(c2cccc(OCC3CCCC3)n2)NC(=O)C1Sc1ccccc1Cl` (single isomer, unassigned) [Example 252, 3-(2-chlorophenyl)sulfanyl-6-[6-(cyclopentyl-methoxy)-2-pyridyl]-6-(3-thienyl)pipereidine-2,4-dione] is 0.079 µM; for `O=C1CC(c2ccsc2)(c2cccc(OCC(F)F)n2)NC(=O)C1Sc1ccccc1Cl` (single isomer, unassigned) [Example 254, 3-(2-chlorophenyl)sulfanyl-6-[6-(2,2-difluoroethoxy)-2-pyridyl]-6-(3-thienyl) piperidine-2,4-dione] it is 0.047 µM; for `O=C1CC(c2ccsc2)(c2cccc(Cc3ccc(F)c(F)c3)n2)NC(=O)C1Sc1ccccc1Cl` (single isomer, unassigned) [Example 256, 3-((2-chlorophenyl)thio)-6-(6-(3,4-difluorobenzyl)pyridin-2-yl)-6-(thiophen-3-yl)piperidine-2,4-dione] it is 0.062 µM.
Turning to `CN(c1ccc(F)cc1)c1cccc(C2(c3ccsc3)CC(=O)C(Sc3ccccc3Cl)C(=O)N2)n1` (single isomer, unassigned) [Example 262, 3-((2-chlorophenyl)thio)-6-(6-((4-fluorophenyl) (methyl)amino)pyridin-2-yl)-6-(thiophen-3-yl)piperidine-2,4-dione], the half-maximal inhibitory concentration (IC50) was determined as 0.104 µM.
The figure for `CN(c1ccc(F)cc1)c1cccc(C2(c3ccsc3)CC(=O)C(Sc3ccccc3Cl)C(=O)N2)n1` (single isomer, unassigned) [Example 265, 3-((2-chlorophenyl)thio)-6-(6-((4-fluorophenyl) (methyl)amino)pyridin-2-yl)-6-(thiophen-3-yl) piperidine-2,4-dione] is 0.022 µM.
Then `CN(c1ccc(F)cc1)c1cccc(C2(c3ccsc3)CC(=O)C(Sc3ccccc3Cl)C(=O)N2)n1` (single isomer, unassigned) [Example 266, 3-((2-chlorophenyl)thio)-6-(6-((4-fluorophenyl) (methyl)amino)pyridin-2-yl)-6-(thiophen-3-yl) piperidine-2,4-dione], with 0.099 µM.
Then `O=C1CC(c2ccsc2)(c2cccc(CCc3ccc(F)cc3)n2)NC(=O)C1Sc1ccccc1Cl` (single isomer, unassigned) [Example 268, 3-((2-chlorophenyl)thio)-6-(6-(4-fluorophenethyl)pyridin-2-yl)-6-(thiophen-3-yl)piperidine-2,4-dione], with 0.402 µM; and `O=C1CC(c2ccsc2)(c2cccc(Cc3ccc(F)c(F)c3)n2)NC(=O)C1Sc1ccccc1Cl` (single isomer, unassigned) [Example 281, 3-((2-chlorophenyl)thio)-6-(6-(3,4-difluorobenzyl)pyridin-2-yl)-6-(thiophen-3-yl)piperidine-2,4-dione], with 0.189 µM; and `O=C1CC(c2ccsc2)(c2cccc(Cc3ccc(F)c(F)c3)n2)NC(=O)C1Sc1ccccc1Cl` (single isomer, unassigned) [Example 282, 3-((2-chlorophenyl)thio)-6-(6-(3,4-difluorobenzyl)pyridin-2-yl)-6-(thiophen-3-yl)piperidine-2,4-dione], with 0.012 µM.
